Target: T1, androgen receptor (AR) (Homo sapiens, UniProt P10275, T878A)
T1 construct: LNCaP cells expressing ARR2PB-FireflyLuc and CMV-RenillaLuc; endogenous in cells; host or cells: LNCaP cells carrying ARR2PB-FireflyLuc and CMV-RenillaLuc reporters
T1 sequence (P10275 1-920 T878A): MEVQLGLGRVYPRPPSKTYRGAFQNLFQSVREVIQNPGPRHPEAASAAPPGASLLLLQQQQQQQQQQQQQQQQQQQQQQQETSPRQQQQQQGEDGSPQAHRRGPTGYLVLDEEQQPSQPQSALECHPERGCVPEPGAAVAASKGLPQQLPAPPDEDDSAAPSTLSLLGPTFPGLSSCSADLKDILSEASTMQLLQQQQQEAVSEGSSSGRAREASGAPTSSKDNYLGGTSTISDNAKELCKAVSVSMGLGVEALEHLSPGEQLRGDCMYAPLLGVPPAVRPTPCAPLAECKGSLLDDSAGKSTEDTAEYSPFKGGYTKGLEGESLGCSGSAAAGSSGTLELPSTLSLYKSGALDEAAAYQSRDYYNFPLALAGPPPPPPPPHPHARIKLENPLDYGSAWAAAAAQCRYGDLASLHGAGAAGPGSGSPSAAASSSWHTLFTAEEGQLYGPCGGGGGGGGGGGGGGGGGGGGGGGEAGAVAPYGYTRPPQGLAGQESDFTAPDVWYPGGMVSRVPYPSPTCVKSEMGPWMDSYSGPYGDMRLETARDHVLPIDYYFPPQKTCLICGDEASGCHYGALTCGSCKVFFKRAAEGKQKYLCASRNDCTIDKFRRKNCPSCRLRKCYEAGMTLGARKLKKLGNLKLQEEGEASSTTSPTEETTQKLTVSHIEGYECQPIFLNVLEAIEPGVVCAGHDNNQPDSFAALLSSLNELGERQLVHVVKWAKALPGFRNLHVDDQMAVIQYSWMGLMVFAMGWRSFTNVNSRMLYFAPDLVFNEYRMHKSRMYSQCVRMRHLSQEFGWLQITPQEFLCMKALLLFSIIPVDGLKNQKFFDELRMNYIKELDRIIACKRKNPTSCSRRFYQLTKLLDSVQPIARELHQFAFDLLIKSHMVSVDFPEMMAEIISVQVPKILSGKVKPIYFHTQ
Test: AR reporter assay in LNCaP cells expressing ARR2PB-FireflyLuc and CMV-RenillaLuc, antagonist mode (% remaining activity, IC50)
Type: cell-based
Conditions: 48 h at 37° C., class symbols A-D, read-out: IC50
In short: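 LNCaP cells carrying ARR2PB-firefly and CMV-Renilla luciferase reporters were treated 48 h at 37 °C with compound plus 0.5 nM DHT. Signals were normalised between 0.5 nM DHT alone and 10 uM enzalutamide + DHT to give % remaining activity, and IC50 was obtained by non-linear regression.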

| IC50 [nM] | Compound |
| --- | --- |
| 1000 to 10000 | Cc1nc(-c2c[nH]c3cc(F)c(F)cc23)ccc1N [Compound 124] |
| < 100 | Cc1nc(-c2c[nH]c3c(C#N)cccc23)cnc1OCC(C)(C)O [Compound 301] |
| > 10000 | Cc1nc(-c2c(C)[nH]c3c(C#N)cccc23)ccc1N [Compound 155] |
| 100 to 1000 | CC1(C)NC(=O)c2ccc(-c3c[nH]c4c(Cl)cccc34)nc21 [Compound 218] |
| 1000 to 10000 | O=C(CO)N1CCCc2nc(-c3n[nH]c4cc(F)c(F)cc34)ccc21 [Compound 36] |
| > 10000 | CN(C)c1ccc2[nH]nc(-c3ccc4ccccc4n3)c2c1 [Compound 3] |
| 100 to 1000 | Cc1nc(-c2coc3c(Cl)cccc23)cnc1OCC(C)(C)O [Compound 337] |
| 1000 to 10000 | Cn1c(=O)ccc2nc(-c3n[nH]c4ccccc34)ccc21 [Compound 17] |
| < 100 | COc1nc(-c2c[nH]c3c(C#N)cccc23)cnc1N[C@H]1CCN(C(C)=O)C1 [Compound 288] |
| 100 to 1000 | CC1(C)NC(=O)c2ccc(-c3c[nH]c4c(C#N)cccc34)cc21 [Compound 264] |
| 1000 to 10000 | O=C1NCc2nc(-c3n[nH]c4ccccc34)ccc21 [Compound 114] |
| 100 to 1000 | Cc1cc(-c2n[nH]c3cc(F)c(F)cc23)nc2c1NCCC2 [Compound 59] |
| > 10000 | c1ccc2c(-c3cc(N4CCNCC4)ccn3)n[nH]c2c1 [Compound 66] |
| > 10000 | Cn1ccc2nc(-c3n[nH]c4cc(F)c(F)cc34)ccc2c1=O [Compound 29] |
| 100 to 1000 | CC(=O)N1CCC(Oc2ccc(-c3c[nH]c4c(C#N)cccc34)nc2Cl)C1 (centres unmarked) [Compound 261] |
| 100 to 1000 | CC1(C)NC(=O)c2ccc(-c3c[nH]c4c(C#N)cccc34)nc21 [Compound 206] |
| > 10000 | Cc1nc(-c2coc3c(C#N)cccc23)cnc1N [Compound 310] |
| 100 to 1000 | COc1nc(-c2n[nH]c3cc(F)c(F)cc23)ccc1N [Compound 91] |
| 100 to 1000 | COCCOc1ccc(-c2c[nH]c3c(C#N)cccc23)nc1C [Compound 165] |
| > 10000 | CC1(C)c2nc(-c3c[nH]c4c(C#N)cccc34)ccc2C(=O)N1CCCCO [Compound 236] |
| > 10000 | CC(=O)N1CCC(Oc2ncc(-c3c[nH]c4cccnc34)nc2C)C1 (centres unmarked) [Compound 311] |
| 100 to 1000 | NCc1cc(F)cc2c(-c3ccc4ncccc4n3)c[nH]c12 [Compound 154] |
| > 10000 | Fc1ccc(-c2c[nH]c3cnccc23)nc1 [Compound 200] |

| IC50 [nM] | Compound |
| --- | --- |
| > 10000 | c1ccc2c(-c3cnc4c(c3)NCCC4)n[nH]c2c1 [Compound 57] |
| > 10000 | CC(=O)N1CCC(Oc2ncc(-c3c[nH]c4ncccc34)nc2C)C1 (centres unmarked) [Compound 292] |
| 1000 to 10000 | N#Cc1cccc2c(-c3cnc(OC4CCNC4)c(C(F)(F)F)n3)c[nH]c12 (centres unmarked) [Compound 245] |
| > 10000 | Cc1nc(-c2c[nH]c3c(C#N)cccc23)cnc1OC1CCC(N)C1 (centres unmarked) [Compound 275] |
| 1000 to 10000 | N#Cc1cccc2c(-c3ccc(N)cn3)c[nH]c12 [Compound 132] |
| 100 to 1000 | FC(F)(F)c1ccc(-c2c[nH]c3ccccc23)nc1 [Compound 118] |
| < 100 | CC1CCNc2ccc(-c3n[nH]c4cc(F)c(F)cc34)nc21 (single isomer, unassigned) [Compound 48] |
| < 100 | Cc1nc(-c2c[nH]c3c(C#N)cc(F)cc23)ccc1F [Compound 131] |
| < 100 | Cc1nc(-c2c[nH]c3c(C#N)cccc23)ccc1N(C)C [Compound 148] |
| > 10000 | NC1CCCc2nc(-c3n[nH]c4ccccc34)ccc21 (centres unmarked) [Compound 22] |
| 100 to 1000 | Cc1nc(-c2c[nH]c3c(C#N)cccc23)cnc1OC1CCNC1 (centres unmarked) [Compound 183] |
| > 10000 | COc1ccc(CN2C(=O)c3ccc(-n4ncc5cc(F)c(F)cc54)nc3C2C)cc1 (centres unmarked) [Compound 106] |
| < 100 | Cc1nc(-c2c[nH]c3c(Cl)cccc23)cnc1OC1CCNC1 (centres unmarked) [Compound 296] |
| > 10000 | Fc1cc2[nH]nc(-c3cc4ccccc4nn3)c2cc1F [Compound 14] |
| 1000 to 10000 | Cc1nc(-c2c[nH]c3c(C#N)cccc23)ccc1OCC(C)(C)O [Compound 324] |
| > 10000 | CN1CCN(c2ccnc(-c3n[nH]c4ccccc34)c2)CC1 [Compound 67] |
| 100 to 1000 | CC1c2nc(-c3n[nH]c4cc(F)c(F)cc34)ccc2C(=O)N1C (centres unmarked) [Compound 104] |
| 100 to 1000 | COCCOc1nc(-c2c[nH]c3c(C#N)cccc23)ccc1N [Compound 170] |
| > 10000 | COc1nc(-c2c[nH]c3ncccc23)cnc1NC1CCN(C(C)=O)C1 (centres unmarked) [Compound 293] |
| 1000 to 10000 | Cc1nc(-c2c[nH]c3c(F)cccc23)ccc1N [Compound 141] |
| 1000 to 10000 | Cc1ccc2c(-c3ccc(F)cc3)c[nH]c2n1 [Compound 203] |
| 100 to 1000 | Cc1nc(-c2c[nH]c3c(C#N)cccc23)cnc1OC[C@H]1[C@@H]2CNC[C@@H]21 [Compound 246] |
| 100 to 1000 | O=c1[nH]ccc2nc(-c3n[nH]c4cc(F)c(F)cc34)ccc12 [Compound 28] |

| IC50 [nM] | Compound |
| --- | --- |
| 1000 to 10000 | Fc1cc2[nH]nc(-c3ccc4c(n3)CCOC4)c2cc1F [Compound 40] |
| 1000 to 10000 | Cc1cc(-c2n[nH]c3cc(F)c(F)cc23)nc2c1NC(=O)CC2 [Compound 80] |
| > 10000 | CC(=O)N1CCc2ccc(-c3n[nH]c4ccccc34)nc2C1 [Compound 21] |
| 100 to 1000 | N#Cc1cccc2c(-c3cncc(N4CCC4)n3)c[nH]c12 [Compound 213] |
| 100 to 1000 | Cc1nc(-c2n[nH]c3c(Cl)cccc23)cnc1OC1CCNC1 (centres unmarked) [Compound 277] |
| 100 to 1000 | CC1NC(=O)c2ccc(-c3n[nH]c4ccccc34)cc21 (centres unmarked) [Compound 109] |
| 100 to 1000 | CC1NC(=O)c2ccc(-c3c[nH]c4c(C#N)cccc34)nc21 (centres unmarked) [Compound 205] |
| > 10000 | Cc1nc(-c2c[nH]c3c(C#N)cccc23)cnc1OC1CCCNC1 (centres unmarked) [Compound 234] |
| > 10000 | c1ccc(-c2cc(-c3ccc4c(n3)CCCN4)n[nH]2)nc1 [Compound 84] |
| 1000 to 10000 | N#Cc1cccc2c(-c3ccc4nc(N)sc4c3)c[nH]c12 [Compound 180] |
| 100 to 1000 | c1cnc2[nH]cc(-c3ccc(C4CC4)cn3)c2c1 [Compound 128] |
| 1000 to 10000 | Cc1nc(-c2n[nH]c3cc(F)c(F)cc23)ccc1OC1CCNC1 (centres unmarked) [Compound 255] |
| > 10000 | CCc1nc(-c2c[nH]c3c(C#N)cccc23)cnc1OC1CCNC1 (centres unmarked) [Compound 249] |
| 1000 to 10000 | Fc1ccc(-c2n[nH]c3ccccc23)nc1 [Compound 62] |
| > 10000 | Cc1nc(-c2n[nH]c3cc(F)c(F)cc23)ccc1C(=O)N(C)C [Compound 102] |
| > 10000 | CC(=O)N1CCc2nc(-c3n[nH]c4cc(F)c(F)cc34)ccc2C1 [Compound 31] |
| 100 to 1000 | CC(=O)N1CCC(Oc2ncc(-c3c[nH]c4c(F)cccc34)nc2C)C1 (centres unmarked) [Compound 291] |
| 100 to 1000 | Cc1cc2c(-c3ccc4c(n3)CCCN4)n[nH]c2cc1F [Compound 45] |
| 100 to 1000 | CC1(C)NC(=O)c2ccc(-c3n[nH]c4cc(F)c(F)cc34)nc21 [Compound 52] |
| > 10000 | c1ccc(-c2cc(-c3ccc4c(n3)CCCN4)n[nH]2)cc1 [Compound 81] |
| 1000 to 10000 | CC(=O)N1CCC(Oc2cnc(-c3c[nH]c4c(C#N)cccc34)cn2)C1 (centres unmarked) [Compound 290] |
| 100 to 1000 | Cc1nc(-c2c[nH]c3c(C#N)cccc23)cnc1NCC(C)(C)O [Compound 279] |

— US12448368B2, “Indole compounds as androgen receptor modulators” (NIDO BIOSCIENCES, INC., priority 2020, dated 2025)
